Test results taken from patent US20230085307A1, “PYRIDAZINONE COMPOUND AND HERBICIDE” (NISSAN CHEMICAL CORPORATION, priority 2019, published 2023).

Tests used:
persian speedwell [1] = test: Test Example 5: herbicidal effect by foliage application, plastic box (Table 20, symbol R); type: in vivo, Persian speedwell (Veronica persica); conditions: 320 g/ha, foliage application after 14-day growth, evaluated three weeks after application
How it was run: (§1)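 Plants sown in sterilized diluvial soil and grown 14 days in a greenhouse at 25° C to 30° C, then sprayed on the foliage with the compound's emulsion diluted in water to a predetermined herbicide amount. Injury to weeds and crops scored three weeks after application on a visual rating scale.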

Italian ryegrass [2] = test: Test Example 5: herbicidal effect by foliage application, plastic box (Table 20, symbol K); type: in vivo, Italian ryegrass (Lolium multiflorum); conditions: 320 g/ha, foliage application after 14-day growth, evaluated three weeks after application
How it was run: as §1

Chinese sprangletop = test: Test Example 3: herbicidal effect by foliage application, Wagner pot (Table 18, symbol D); type: in vivo, chinese sprangletop (Leptochloa chinensis); conditions: 320 g/ha
How it was run: (§2)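 Plants were sown in alluvial soil held under 0.1–0.5 cm standing water and grown 14 days in a greenhouse at 25–30 °C. An emulsifiable formulation, water-diluted to the set dose, was then sprayed onto the foliage, and effects were scored three weeks later using previously defined criteria.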

redroot pigweed [3] = test: Test Example 4: herbicidal effect by soil treatment (Table 19, symbol N); type: in vivo, redroot pigweed (Amaranthus retroflexus); conditions: amount of applied herbicide 320 g/ha
How it was run: (§3)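 Seeds were sown in sterilized diluvial soil and covered with about 1.5 cm of soil. An emulsion formulation diluted with water to a predetermined herbicide amount was sprayed evenly onto the soil surface. Plants grew in a greenhouse at 25° C. to 30° C., and the effect was scored three weeks after application using criteria from an earlier test.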

wild oat [4] = test: Test Example 5: herbicidal effect by foliage application, plastic box (Table 20, symbol I); type: in vivo, wild oat (Avena fatua); conditions: 320 g/ha, foliage application after 14-day growth, evaluated three weeks after application
How it was run: as §1

barnyard grass [5] = test: Test Example 4: herbicidal effect by soil treatment (Table 19, symbol H); type: in vivo, barnyard grass (Echinochloa crus-galli); conditions: amount of applied herbicide 320 g/ha
How it was run: as §3

chickweed [6] = test: Test Example 4: herbicidal effect by soil treatment (Table 19, symbol P); type: in vivo, common chickweed (Stellaria media); conditions: amount of applied herbicide 320 g/ha
How it was run: as §3

windgrass [7] = test: Test Example 4: herbicidal effect by soil treatment (Table 19, symbol L); type: in vivo, windgrass (Apera spica-venti); conditions: amount of applied herbicide 320 g/ha
How it was run: as §3

southern crabgrass [8] = test: Test Example 5: herbicidal effect by foliage application, plastic box (Table 20, symbol F); type: in vivo, southern crabgrass (Digitaria ciliaris); conditions: 320 g/ha, foliage application after 14-day growth, evaluated three weeks after application
How it was run: as §1

blackgrass [9] = test: Test Example 5: herbicidal effect by foliage application, plastic box (Table 20, symbol J); type: in vivo, blackgrass (Alopecurus myosuroides); conditions: 320 g/ha, foliage application after 14-day growth, evaluated three weeks after application
How it was run: as §1

persian speedwell [10] = test: Test Example 4: herbicidal effect by soil treatment (Table 19, symbol R); type: in vivo, Persian speedwell (Veronica persica); conditions: amount of applied herbicide 320 g/ha
How it was run: as §3

velvetleaf [11] = test: Test Example 4: herbicidal effect by soil treatment (Table 19, symbol M); type: in vivo, velvetleaf (Abutilon theophrasti); conditions: amount of applied herbicide 320 g/ha
How it was run: as §3

green foxtail [12] = test: Test Example 5: herbicidal effect by foliage application, plastic box (Table 20, symbol G); type: in vivo, green foxtail (Setaria viridis); conditions: 320 g/ha, foliage application after 14-day growth, evaluated three weeks after application
How it was run: as §1

green foxtail [13] = test: Test Example 4: herbicidal effect by soil treatment (Table 19, symbol G); type: in vivo, green foxtail (Setaria viridis); conditions: amount of applied herbicide 320 g/ha
How it was run: as §3

velvetleaf [14] = test: Test Example 5: herbicidal effect by foliage application, plastic box (Table 20, symbol M); type: in vivo, velvetleaf (Abutilon theophrasti); conditions: 320 g/ha, foliage application after 14-day growth, evaluated three weeks after application
How it was run: as §1

lambsquarters [15] = test: Test Example 4: herbicidal effect by soil treatment (Table 19, symbol O); type: in vivo, lambsquarters (Chenopodium album); conditions: amount of applied herbicide 320 g/ha
How it was run: as §3

lambsquarters [16] = test: Test Example 5: herbicidal effect by foliage application, plastic box (Table 20, symbol O); type: in vivo, lambsquarters (Chenopodium album); conditions: 320 g/ha, foliage application after 14-day growth, evaluated three weeks after application
How it was run: as §1

chickweed [17] = test: Test Example 5: herbicidal effect by foliage application, plastic box (Table 20, symbol P); type: in vivo, common chickweed (Stellaria media); conditions: 320 g/ha, foliage application after 14-day growth, evaluated three weeks after application
How it was run: as §1

redroot pigweed [18] = test: Test Example 5: herbicidal effect by foliage application, plastic box (Table 20, symbol N); type: in vivo, redroot pigweed (Amaranthus retroflexus); conditions: 320 g/ha, foliage application after 14-day growth, evaluated three weeks after application
How it was run: as §1

blackgrass [19] = test: Test Example 4: herbicidal effect by soil treatment (Table 19, symbol J); type: in vivo, blackgrass (Alopecurus myosuroides); conditions: amount of applied herbicide 320 g/ha
How it was run: as §3

southern crabgrass [20] = test: Test Example 4: herbicidal effect by soil treatment (Table 19, symbol F); type: in vivo, southern crabgrass (Digitaria ciliaris); conditions: amount of applied herbicide 320 g/ha
How it was run: as §3

windgrass [21] = test: Test Example 5: herbicidal effect by foliage application, plastic box (Table 20, symbol L); type: in vivo, windgrass (Apera spica-venti); conditions: 320 g/ha, foliage application after 14-day growth, evaluated three weeks after application
How it was run: as §1

rice flat sedge = test: Test Example 3: herbicidal effect by foliage application, Wagner pot (Table 18, symbol E); type: in vivo, rice flat sedge (Cyperus iria); conditions: 320 g/ha
How it was run: as §2

barnyard grass [22] = test: Test Example 5: herbicidal effect by foliage application, plastic box (Table 20, symbol H); type: in vivo, barnyard grass (Echinochloa crus-galli); conditions: 320 g/ha, foliage application after 14-day growth, evaluated three weeks after application
How it was run: as §1

Italian ryegrass [23] = test: Test Example 4: herbicidal effect by soil treatment (Table 19, symbol K); type: in vivo, Italian ryegrass (Lolium multiflorum); conditions: amount of applied herbicide 320 g/ha
How it was run: as §3

wild oat [24] = test: Test Example 4: herbicidal effect by soil treatment (Table 19, symbol I); type: in vivo, wild oat (Avena fatua); conditions: amount of applied herbicide 320 g/ha
How it was run: as §3

barnyard grass [25] = test: Test Example 3: herbicidal effect by foliage application, Wagner pot (Table 18, symbol H); type: in vivo, barnyard grass (Echinochloa crus-galli); conditions: 320 g/ha
How it was run: as §2

Row | SMILES | herbicidal effect on R: persian speedwell (evaluation grade 0-5) (persian speedwell [1]) | herbicidal effect on K: Italian ryegrass (evaluation grade 0-5) (Italian ryegrass [2]) | herbicidal effect on Chinese sprangletop (D) (Chinese sprangletop) | Herbicidal effect by soil treatment, N: redroot pigweed (redroot pigweed [3]) | herbicidal effect on I: wild oat (evaluation grade 0-5) (wild oat [4]) | Herbicidal effect by soil treatment, H: barnyard grass (barnyard grass [5]) | Herbicidal effect by soil treatment, P: chickweed (chickweed [6]) | Herbicidal effect by soil treatment, L: windgrass (windgrass [7]) | herbicidal effect on F: southern crabgrass (evaluation grade 0-5) (southern crabgrass [8]) | herbicidal effect on J: blackgrass (evaluation grade 0-5) (blackgrass [9]) | Herbicidal effect by soil treatment, R: persian speedwell (persian speedwell [10]) | Herbicidal effect by soil treatment, M: velvetleaf (velvetleaf [11]) | herbicidal effect on G: green foxtail (evaluation grade 0-5) (green foxtail [12]) | Herbicidal effect by soil treatment, G: green foxtail (green foxtail [13]) | herbicidal effect on M: velvetleaf (evaluation grade 0-5) (velvetleaf [14]) | Herbicidal effect by soil treatment, O: lambsquarters (lambsquarters [15]) | herbicidal effect on O: lambsquarters (evaluation grade 0-5) (lambsquarters [16]) | herbicidal effect on P: chickweed (evaluation grade 0-5) (chickweed [17]) | herbicidal effect on N: redroot pigweed (evaluation grade 0-5) (redroot pigweed [18]) | Herbicidal effect by soil treatment, J: blackgrass (blackgrass [19]) | further results
1 | Cc1nn(C)c(=O)c(-c2c(-c3ccc(OC(F)(F)F)cc3)sc3cc(Cl)ccc23)c1O [3-149] | 4 (Herbicidal rate of 70% or more and less than 90%) | 3 (Herbicidal rate of 40% or more and less than 70%) | 5 (Herbicidal rate of 90% or more (almost completely withered)) | 3 (Herbicidal rate of 40% or more and less than 70%) | 0 (Herbicidal rate of 5% or less (almost no effect)) | 0 (Herbicidal rate of 5% or less (almost no effect)) | 0 (Herbicidal rate of 5% or less (almost no effect)) | 0 (Herbicidal rate of 5% or less (almost no effect)) | 3 (Herbicidal rate of 40% or more and less than 70%) | 5 (Herbicidal rate of 90% or more (almost completely withered)) | 0 (Herbicidal rate of 5% or less (almost no effect)) | 1 (Herbicidal rate of 5% or more and less than 20%) | 4 (Herbicidal rate of 70% or more and less than 90%) | 0 (Herbicidal rate of 5% or less (almost no effect)) | 4 (Herbicidal rate of 70% or more and less than 90%) | 0 (Herbicidal rate of 5% or less (almost no effect)) | 4 (Herbicidal rate of 70% or more and less than 90%) | 0 (Herbicidal rate of 5% or less (almost no effect)) | 3 (Herbicidal rate of 40% or more and less than 70%) | 0 (Herbicidal rate of 5% or less (almost no effect)) | Herbicidal effect by soil treatment, F: southern crabgrass (southern crabgrass [20]): 0 (Herbicidal rate of 5% or less (almost no effect)); herbicidal effect on L: windgrass (evaluation grade 0-5) (windgrass [21]): 5 (Herbicidal rate of 90% or more (almost completely withered)); herbicidal effect on rice flat sedge (E) (rice flat sedge): 4 (Herbicidal rate of 70% or more and less than 90%); herbicidal effect on H: barnyard grass (evaluation grade 0-5) (barnyard grass [22]): 3 (Herbicidal rate of 40% or more and less than 70%); Herbicidal effect by soil treatment, K: Italian ryegrass (Italian ryegrass [23]): 0 (Herbicidal rate of 5% or less (almost no effect)); Herbicidal effect by soil treatment, I: wild oat (wild oat [24]): 0 (Herbicidal rate of 5% or less (almost no effect)); herbicidal effect on barnyard grass (H) (barnyard grass [25]): 4 (Herbicidal rate of 70% or more and less than 90%)
2 | Cc1ccc2c(-c3c(O)c(C)nn(C)c3=O)c(-c3ccc(OC(F)F)cc3)sc2c1 [3-151] | 5 (Herbicidal rate of 90% or more (almost completely withered)) | 2 (Herbicidal rate of 20% or more and less than 40%) | 0 (Herbicidal rate of 5% or less (almost no effect)) | 0 (Herbicidal rate of 5% or less (almost no effect)) | 0 (Herbicidal rate of 5% or less (almost no effect)) | 0 (Herbicidal rate of 5% or less (almost no effect)) | 1 (Herbicidal rate of 5% or more and less than 20%) | 0 (Herbicidal rate of 5% or less (almost no effect)) | 0 (Herbicidal rate of 5% or less (almost no effect)) | 0 (Herbicidal rate of 5% or less (almost no effect)) | 5 (Herbicidal rate of 90% or more (almost completely withered)) | 0 (Herbicidal rate of 5% or less (almost no effect)) | 0 (Herbicidal rate of 5% or less (almost no effect)) | 0 (Herbicidal rate of 5% or less (almost no effect)) | 3 (Herbicidal rate of 40% or more and less than 70%) | 0 (Herbicidal rate of 5% or less (almost no effect)) | 3 (Herbicidal rate of 40% or more and less than 70%) | 5 (Herbicidal rate of 90% or more (almost completely withered)) | 2 (Herbicidal rate of 20% or more and less than 40%) | 0 (Herbicidal rate of 5% or less (almost no effect)) | Herbicidal effect by soil treatment, F: southern crabgrass (southern crabgrass [20]): 0 (Herbicidal rate of 5% or less (almost no effect)); herbicidal effect on L: windgrass (evaluation grade 0-5) (windgrass [21]): 0 (Herbicidal rate of 5% or less (almost no effect)); herbicidal effect on rice flat sedge (E) (rice flat sedge): 3 (Herbicidal rate of 40% or more and less than 70%); herbicidal effect on H: barnyard grass (evaluation grade 0-5) (barnyard grass [22]): 0 (Herbicidal rate of 5% or less (almost no effect)); Herbicidal effect by soil treatment, K: Italian ryegrass (Italian ryegrass [23]): 0 (Herbicidal rate of 5% or less (almost no effect)); Herbicidal effect by soil treatment, I: wild oat (wild oat [24]): 0 (Herbicidal rate of 5% or less (almost no effect)); herbicidal effect on barnyard grass (H) (barnyard grass [25]): 3 (Herbicidal rate of 40% or more and less than 70%)
